The text below walks through data of patent US20160176880A1, “SUBSTITUTED IMIDAZO[1,2-A]PYRAZINECARBOXAMIDES AND USE THEREOF” (BAYER PHARMA AKTIENGESELLSCHAFT, priority 2013, published 2016).

For the experiment, the target named is T1, recombinant guanylate cyclase reporter cell line (Rattus norvegicus, UniProt P19686+P20595).
T1 construct: expressed in transfected cells
T1 sequence (P19686 1-690): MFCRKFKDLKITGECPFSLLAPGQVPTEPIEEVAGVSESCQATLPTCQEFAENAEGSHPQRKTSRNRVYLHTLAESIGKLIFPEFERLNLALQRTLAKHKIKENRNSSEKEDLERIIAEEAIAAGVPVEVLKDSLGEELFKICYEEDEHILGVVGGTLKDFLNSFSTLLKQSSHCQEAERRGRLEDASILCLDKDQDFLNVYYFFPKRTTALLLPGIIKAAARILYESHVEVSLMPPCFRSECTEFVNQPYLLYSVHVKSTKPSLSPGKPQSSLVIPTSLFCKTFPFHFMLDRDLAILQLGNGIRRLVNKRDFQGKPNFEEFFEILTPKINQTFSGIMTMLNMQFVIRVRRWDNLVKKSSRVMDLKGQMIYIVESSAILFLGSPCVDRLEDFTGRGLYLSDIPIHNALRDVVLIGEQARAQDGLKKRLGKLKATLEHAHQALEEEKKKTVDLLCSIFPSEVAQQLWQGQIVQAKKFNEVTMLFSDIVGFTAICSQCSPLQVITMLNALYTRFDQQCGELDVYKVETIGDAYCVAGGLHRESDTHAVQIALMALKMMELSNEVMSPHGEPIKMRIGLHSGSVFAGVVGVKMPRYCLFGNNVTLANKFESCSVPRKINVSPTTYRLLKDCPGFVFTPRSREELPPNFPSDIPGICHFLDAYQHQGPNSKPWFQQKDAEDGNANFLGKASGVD
T1 sequence (P20595 1-619): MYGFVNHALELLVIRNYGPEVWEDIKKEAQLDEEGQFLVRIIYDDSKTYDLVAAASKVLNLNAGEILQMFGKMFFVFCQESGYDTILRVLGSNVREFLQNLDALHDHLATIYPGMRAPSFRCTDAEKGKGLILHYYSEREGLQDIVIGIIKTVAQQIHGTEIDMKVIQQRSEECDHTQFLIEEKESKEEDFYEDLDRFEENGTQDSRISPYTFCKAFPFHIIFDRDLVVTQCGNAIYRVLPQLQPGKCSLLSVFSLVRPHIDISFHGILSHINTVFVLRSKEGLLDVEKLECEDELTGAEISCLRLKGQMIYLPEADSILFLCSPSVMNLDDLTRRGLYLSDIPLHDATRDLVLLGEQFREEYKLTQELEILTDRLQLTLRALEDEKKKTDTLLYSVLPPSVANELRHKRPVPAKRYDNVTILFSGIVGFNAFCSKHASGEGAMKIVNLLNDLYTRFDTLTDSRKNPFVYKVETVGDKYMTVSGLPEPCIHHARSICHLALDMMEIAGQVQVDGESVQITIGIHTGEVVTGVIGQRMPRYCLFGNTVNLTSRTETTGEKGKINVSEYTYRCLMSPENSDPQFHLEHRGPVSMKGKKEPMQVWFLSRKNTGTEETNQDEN
Description: Effect on a recombinant guanylate cyclase reporter cell line. The class given is cell-based. The conditions noted are these: MEC = minimum effective concentration; in some cases mean values for individual determinations. The method, then: B-2. Effect on a Recombinant Guanylate Cyclase Reporter Cell Line
The cellular action of the compounds of the invention is determined using a recombinant guanylate cyclase reporter cell line, as described in F. Wunder et al., Anal. Biochem. 339, 104-112 (2005).
Representative MEC values (MEC=minimum effective concentration) for the compounds of the invention are shown in the table below (in some cases as mean values for individual determinations): […]

Where a name gives a salt, the structure may show the parent alone.

As to `Cc1cn2c(C(=O)NCC3CCC(C#N)CC3)c(C)nc2c(OCc2c(F)cccc2F)n1` (mixture of isomers) [Example 50, N-[(4-cyanocyclohexyl)methyl]-8-[(2,6-difluorobenzyl)oxy]-2,6-dimethylimidazo[1,2-a]pyrazine-3-carboxamide trifluoroacetate (cis/trans mixture)], the MEC was found to be 1.0 µM.
The value for `Cc1cn2c(C(=O)NNC3CCCC3O)c(C)nc2c(OCc2c(F)cccc2F)n1` (mixture of isomers) [Example 54, 8-[(2,6-difluorobenzyl)oxy]-N′-(2-hydroxycyclopentyl)-2,6-dimethylimidazo[1,2-a]pyrazine-3-carbohydrazide trifluoroacetate (mixture of stereoisomers)] was 1.0 µM; that for `Cc1cn2c(C(=O)NCC(C)(N)CC(C)C)c(C)nc2c(OCc2c(F)cccc2F)n1` (racemic) [Example 5, rac-N-(2-Amino-2,4-dimethylpentyl)-8-[(2,6-difluorobenzyl)oxy]-2,6-dimethylimidazo[1,2-a]pyrazine-3-carboxamide] was 1 µM; that for `Cc1cn2c(C(=O)NC(C)C#N)c(C)nc2c(OCc2c(F)cccc2F)n1` (racemic) [Example 14, rac-N-(1-cyanoethyl)-8-[(2,6-difluorobenzyl)oxy]-2,6-dimethylimidazo[1,2-a]pyrazine-3-carboxamide] was 3 µM.
The value for `Cc1cn2c(C(=O)NC3CC3c3ccccc3)c(C)nc2c(OCc2c(F)cccc2F)n1` (racemic) [Example 17, rac-8-[(2,6-difluorobenzyl)oxy]-2,6-dimethyl-N-(2-phenylcyclopropyl)imidazo[1,2-a]pyrazine-3-carboxamide] was 10 µM; that for `Cc1cn2c(C(=O)NCC(C)(N)C3CC3)c(C)nc2c(OCc2c(F)cccc2F)n1` (racemic) [Example 20, rac-N-(2-amino-2-cyclopropylpropyl)-8-[(2,6-difluorobenzyl)oxy]-2,6-dimethylimidazo[1,2-a]pyrazine-3-carboxamide] was 3 µM; that for `Cc1cn2c(C(=O)NC(C)c3nc(C(F)(F)F)no3)c(C)nc2c(OCc2c(F)cccc2F)n1` (racemic) [Example 26, rac-8-[(2,6-difluorobenzyl)oxy]-2,6-dimethyl-N-{1-[3-(trifluoromethyl)-1,2,4-oxadiazol-5-yl]ethyl}imidazo[1,2-a]pyrazine-3-carboxamide] was 3 µM.
The result for `Cc1cn2c(C(=O)NC(C)COCC(F)(F)F)c(C)nc2c(OCc2c(F)cccc2F)n1` (racemic) [Example 31, rac-8-[(2,6-difluorobenzyl)oxy]-2,6-dimethyl-N-[1-(2,2,2-trifluoroethoxy)propan-2-yl]imidazo[1,2-a]pyrazine-3-carboxamide] reads 3 µM.
For the compound `Cc1cn2c(C(=O)NC(C#N)c3ccc(Cl)cc3)c(C)nc2c(OCc2c(F)cccc2F)n1` (racemic) [Example 46, rac-N-[(4-chlorophenyl)(cyano)methyl]-8-[(2,6-difluorobenzyl)oxy]-2,6-dimethylimidazo[1,2-a]pyrazine-3-carboxamide], the MEC came to 10 µM.
In the case of `Cc1cn2c(C(=O)NCC(C)(N)CC(F)F)c(C)nc2c(OCc2c(F)cccc2F)n1` (single isomer, unassigned; enantiomer a) [Example 41, ent-N-(2-Amino-4,4-difluoro-2-methylbutyl)-8-[(2,6-difluorobenzyl)oxy]-2,6-dimethylimidazo[1,2-a]pyrazine-3-carboxamide (enantiomer A)], the MEC was found to be 0.65 µM.
On to `Cc1cn2c(C(=O)NCC(C)(N)CF)c(C)nc2c(OCc2c(F)cccc2F)n1` (single isomer, unassigned; enantiomer b) [Example 37, ent-N-(2-Amino-3-fluoro-2-methylpropyl)-8-[(2,6-difluorobenzyl)oxy]-2,6-dimethylimidazo[1,2-a]pyrazine-3-carboxamide (enantiomer B)], for which the MEC was found to be 0.3 µM.
Consider `Cc1cn2c(C(=O)NCC(C)(N)CCC(F)(F)F)c(C)nc2c(OCc2c(F)cccc2F)n1` (single isomer, unassigned; enantiomer b) [Example 38, ent-N-(2-Amino-5,5,5-trifluoro-2-methylpentyl)-8-[(2,6-difluorobenzyl)oxy]-2,6-dimethylimidazo[1,2-a]pyrazine-3-carboxamide (enantiomer B)], for which the MEC stood at 0.3 µM.
`CCCC(C)(N)CNC(=O)c1c(C)nc2c(OCc3c(F)cccc3F)nc(C)cn12` (single isomer, unassigned; enantiomer b) [Example 39, ent-N-(2-Amino-2-methylpentyl)-8-[(2,6-difluorobenzyl)oxy]-2,6-dimethylimidazo[1,2-a]pyrazine-3-carboxamide (enantiomer B)]: the MEC stood at 0.2 µM.
For the compound `Cc1cn2c(C(=O)NCC(C)(N)CCCF)c(C)nc2c(OCc2c(F)cccc2F)n1` (single isomer, unassigned; enantiomer b) [Example 40, ent-N-(2-Amino-5-fluoro-2-methylpentyl)-8-[(2,6-difluorobenzyl)oxy]-2,6-dimethylimidazo[1,2-a]pyrazine-3-carboxamide (enantiomer B)], the MEC was found to be 0.3 µM.
Consider `Cc1cn2c(C(=O)NCC(C)(N)CC(F)F)c(C)nc2c(OCc2c(F)cccc2F)n1` (single isomer, unassigned; enantiomer b) [Example 42, ent-N-(2-Amino-4,4-difluoro-2-methylbutyl)-8-[(2,6-difluorobenzyl)oxy]-2,6-dimethylimidazo[1,2-a]pyrazine-3-carboxamide (enantiomer B)], for which the MEC is 0.3 µM.
Take `Cc1cn2c(C(=O)NC(CCCC(F)(F)F)C(C)(C)O)c(C)nc2c(OCc2c(F)cccc2F)n1` (single isomer, unassigned; ent-8) [Example 6, ent-8[(2,6-Difluorobenzyl)oxy]-2,6-dimethyl-N-(7,7,7-trifluoro-2-hydroxy-2-methylheptan-3-yl)imidazo[1,2-a]pyrazine-3-carboxamide]: the MEC is 3 µM.
The value for `CCCCC(NC(=O)c1c(C)nc2c(OCc3c(F)cccc3F)nc(C)cn12)C(C)(C)O` (single isomer, unassigned; ent-8) [Example 7, ent-8[(2,6-Difluorobenzyl)oxy]-N-(2-hydroxy-2-methylheptan-3-yl)-2,6-dimethylimidazo[1,2-a]pyrazine-3-carboxamide] was 0.3 µM; that for `Cc1cn2c(C(=O)NC(CCC(F)(F)C(F)(F)F)C(C)(C)O)c(C)nc2c(OCc2c(F)cccc2F)n1` (single isomer, unassigned; ent-8) [Example 29, ent-8-[(2,6-difluorobenzyl)oxy]-2,6-dimethyl-N-(6,6,7,7,7-pentafluoro-2-hydroxy-2-methylheptan-3-yl)imidazo[1,2-a]pyrazine-3-carboxamide] was 1 µM.
For `CC[C@](C)(N)CNC(=O)c1c(C)nc2c(OCc3c(F)cccc3F)nc(C)cn12` [Example 1, ent-N-[(2S)-2-Amino-2-methylbutyl]-8-[(2,6-difluorobenzyl)oxy]-2,6-dimethylimidazo[1,2-a]pyrazine-3-carboxamide], the MEC stood at 0.77 µM.
Take `CCCC[C@H](C)NC(=O)c1c(C)nc2c(OCc3c(F)cccc3F)nc(C)cn12` [Example 2, 8-[(2,6-Difluorobenzyl)oxy]-N-[(2S)-hexan-2-yl]-2,6-dimethylimidazo[1,2-a]pyrazine-3-carboxamide]: the MEC was 1 µM.
Regarding `CCCC[C@H](CO)NC(=O)c1c(C)nc2c(OCc3c(F)cccc3F)nc(C)cn12` [Example 3, 8-[(2,6-Difluorobenzyl)oxy]-N-[(2R)-1-hydroxyhexan-2-yl]-2,6-dimethylimidazo[1,2-a]pyrazine-3-carboxamide], the MEC came out at 3 µM.
Regarding `Cc1cn2c(C(=O)NC3(c4ccc(F)c(F)c4)CC3)c(C)nc2c(OCc2c(F)cccc2F)n1` [Example 4, 8-[(2,6-Difluorobenzyl)oxy]-N-[1-(3,4-difluorophenyl)cyclopropyl]-2,6-dimethylimidazo[1,2-a]pyrazine-3-carboxamide], the MEC came to 1 µM.
